The values below come from ChEMBL document CHEMBL1126576, “Structure-activity relationships of the antimalarial agent artemisinin. 1. Synthesis and comparative molecular field analysis of C-9 analogs of artemisinin and 10-deoxoartemisinin” (1993).

Structures are written as SMILES.

In test [1] the test system is Plasmodium falciparum. Put plainly: Relative activity compared to artemisinin against Plasmodium falciparum Sierra Leone D6. The format is functional.
In test [2] the test system is Plasmodium falciparum. Kind of test: Relative activity compared to artemisinin against Plasmodium falciparum Indochina W2. The format is functional.

For the compound `CC(C)CC[C@H]1C(=O)O[C@@H]2O[C@@]3(C)CC[C@H]4[C@H](C)CC[C@@H]1[C@@]24O3`, the figures for the Relative activity with Plasmodium falciparum [1] and with Plasmodium falciparum [2] were 0.13 and 0.14, respectively.

`C[C@@H]1CC[C@H]2[C@@H](C)C(=O)O[C@@H]3O[C@@]4(C)CC[C@@H]1[C@]32O4` [DEOXYARTEMISININ]: the Relative activity in the test on Plasmodium falciparum [1] and in the test with Plasmodium falciparum [2] was 0.001 each time.
